“Also recorded” adds a separate entry of the source. Where two headings read alike, the source gives them in different places.
What was measured:
EfCdnE = target: T1, EfCdnE (Enterococcus faecalis, UniProt P0DX98); experiment: ITC analysis of nucleotide binding to wild-type EfCdnE
T1 construct: Full-length gene fragments encoding ClCdnE from Cecembia lonarensis; made in house; host or cells: E. coli BL21 (DE3)
Method: EfCdnE was chosen as the sample to evaluate the affinity of this class of enzyme to different nucleotides by isothermal titration calorimetry (ITC), using nano-ITC (TA Instruments). EfCdnE was dialyzed overnight against an assay buffer containing 20 mM Tris pH 8.0, 150 mM NaCl. The nucleotides to be tested (UTP, CTP, ATP and GTP, and their analogs) were each dissolved in the same buffer. Titration was carried out by 20 sequential injections of the nucleotide at a concentration of 250 μM at 3-min intervals to 50 μM EfCdnE, with a stirring speed of 300 rpm. The heat of dilution resulting from injecting the nucleotide into the assay buffer was subtracted. The final data were analyzed and curve-fitted with sequential two-site mode by using NanoAnalyze v3.12.5 (TA Instruments).

EfCdnE^W281A = target: T2, EfCdnE^W281A (Enterococcus faecalis, UniProt P0DX98, W281A); experiment: ITC analysis of nucleotide binding to EfCdnE^W281A mutant; conditions: read-out: dissociation constant (KD)
T2 construct: Full-length gene fragments encoding ClCdnE from Cecembia lonarensis; His6 (C); made in house; host or cells: E. coli BL21 (DE3)
T2 sequence (P0DX98 1-299 W281A): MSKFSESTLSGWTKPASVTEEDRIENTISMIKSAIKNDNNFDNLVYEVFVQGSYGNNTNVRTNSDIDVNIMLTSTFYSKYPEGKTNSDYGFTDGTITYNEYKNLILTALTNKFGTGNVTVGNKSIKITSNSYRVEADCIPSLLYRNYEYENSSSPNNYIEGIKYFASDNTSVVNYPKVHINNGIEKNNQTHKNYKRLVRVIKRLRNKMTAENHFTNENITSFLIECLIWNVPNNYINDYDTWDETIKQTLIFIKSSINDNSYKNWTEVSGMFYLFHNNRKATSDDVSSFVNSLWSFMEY
Text: (§1) To validate the importance of this motif, we changed Arg279 and Trp281 of EfCdnE to a smaller alanine residue and assessed the substrate specificity and product synthesis of both wild-type and mutant EfCdnE by ITC and LC-MS/MS. […] Based on sequence conservation and structural similarity, it is proposed that the cyclic di-pyrimidine-synthesizing CdnE proteins, including ClCdnE, EfCdnE, and LpCdnE, form smaller donor pockets that act as molecular gauges to recognize and retain the binding of pyrimidine nucleotides but weaken or exclude the binding to purine nucleotides (Fig. 6F). In combination with the conserved Asn residue in the acceptor pocket, the substrate specificity for double pyrimidine was achieved (Fig. 6F).
(§2) EfCdnE was chosen as the sample to evaluate the affinity of this class of enzyme to different nucleotides by isothermal titration calorimetry (ITC), using nano-ITC (TA Instruments). EfCdnE was dialyzed overnight against an assay buffer containing 20 mM Tris pH 8.0, 150 mM NaCl. The nucleotides to be tested (UTP, CTP, ATP and GTP, and their analogs) were each dissolved in the same buffer. […] The final data were analyzed and curve-fitted with sequential two-site mode by using NanoAnalyze v3.12.5 (TA Instruments).

EfCdnE^R279A = target: T3, EfCdnE^R279A (Enterococcus faecalis, UniProt P0DX98, R279A); experiment: ITC analysis of nucleotide binding to EfCdnE^R279A mutant
T3 construct: Full-length gene fragments encoding ClCdnE from Cecembia lonarensis; His6 (C); made in house; host or cells: E. coli BL21 (DE3)
Text: as §1, §2

[1] = dissociation constant (KD), second of two binding sites, ITC, wild-type EfCdnE, sequential two-site fit, second-named site (acceptor pocket for UMPnPP)

T1 sequence (P0DX98 whole entry, the tested form may be a part): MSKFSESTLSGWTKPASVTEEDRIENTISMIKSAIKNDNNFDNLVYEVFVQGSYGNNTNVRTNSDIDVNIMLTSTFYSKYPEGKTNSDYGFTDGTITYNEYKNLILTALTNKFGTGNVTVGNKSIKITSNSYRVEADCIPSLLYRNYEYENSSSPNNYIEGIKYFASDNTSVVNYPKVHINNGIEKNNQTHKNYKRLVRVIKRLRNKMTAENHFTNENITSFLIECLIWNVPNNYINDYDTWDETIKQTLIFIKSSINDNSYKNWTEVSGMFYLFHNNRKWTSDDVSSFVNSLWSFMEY
T3 sequence (P0DX98 whole entry R279A, the tested form may be a part): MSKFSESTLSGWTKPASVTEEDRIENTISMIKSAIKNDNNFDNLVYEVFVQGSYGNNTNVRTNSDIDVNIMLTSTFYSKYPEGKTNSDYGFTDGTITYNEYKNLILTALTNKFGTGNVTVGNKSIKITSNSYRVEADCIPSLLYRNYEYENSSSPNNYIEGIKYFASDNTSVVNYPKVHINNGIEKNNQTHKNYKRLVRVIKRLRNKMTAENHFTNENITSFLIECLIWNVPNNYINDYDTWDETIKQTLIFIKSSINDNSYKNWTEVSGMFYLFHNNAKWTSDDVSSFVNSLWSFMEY

SMILES | binding to EfCdnE (in words) (EfCdnE; ITC, wild-type EfCdnE) | Kd (EfCdnE^W281A) | Kd (EfCdnE) | Kd (EfCdnE; [1]) | binding affinity, dissociation constant (in words) (EfCdnE^R279A) | binding to EfCdnE pre-incubated with UMPnPP (in words) (EfCdnE; ITC, EfCdnE pre-incubated with UMPnPP)
Nc1ncnc2c1ncn2[C@@H]1O[C@H](COP(=O)(O)CP(=O)(O)OP(=O)(O)O)[C@@H](O)[C@H]1O [AMPcPP] | No binding; also recorded: too weak to be detected | 35 µM |  |  |  | 
Nc1nc2c(ncn2[C@@H]2O[C@H](COP(=O)(O)CP(=O)(O)OP(=O)(O)O)[C@@H](O)[C@H]2O)c(=O)[nH]1 [GMPcPP] | No binding; also recorded: too weak to be detected | 65 µM |  |  |  | 
O=c1ccn([C@@H]2O[C@H](COP(=O)(O)NP(=O)(O)OP(=O)(O)O)[C@@H](O)[C@H]2O)c(=O)[nH]1 [UMPnPP] |  |  | 0.0147 µM | 0.98 µM |  | 
Nc1ncnc2c1ncn2[C@@H]1O[C@H](COP(=O)(O)OP(=O)(O)OP(=O)(O)O)[C@@H](O)[C@H]1O [ATP] | did not |  |  |  | near micromolar | 
Nc1nc2c(ncn2[C@@H]2O[C@H](COP(=O)(O)OP(=O)(O)OP(=O)(O)O)[C@@H](O)[C@H]2O)c(=O)[nH]1 [GTP] | did not |  |  |  | near micromolar | 
Nc1ccn([C@@H]2O[C@H](COP(=O)(O)CP(=O)(O)OP(=O)(O)O)[C@@H](O)[C@H]2O)c(=O)n1 [CMPcPP] |  |  | 0.0187 µM | 1.27 µM |  | no binding; also recorded: did not bind

Source: paper PMC10442399, “Crystal structure and functional implications of cyclic di-pyrimidine-synthesizing cGAS/DncV-like nucleotidyltransferases” (Nature Communications, 2023)
